Data from US20140073634A1 (Institute For Applied Cancer Science/The University of …, priority 2012, published 2014).

How the values were obtained:
Gli56 cells = assay: Glioblastoma cellular assay; format: cell-based; conditions: Gli56, various concentrations
Description: (§1) NB-1, Gli56, and D423 cell lines are deleted for ENO-1 (GLI56 and D423) or PGD, which renders them with reduced glycolytic capacity (Muller, F. et al., Nature, 2012, 488, 337-42).

[1] = test system: OCI-AML3 cells constitutively expressing luciferase; assay: OCI-AML3 leukemia model in NSG mice (IVIS imaging, survival); format: in vivo, NSG nude mice
Experimental: (§2) The OCI-AML3 cell line was treated with various concentrations of the compound of Example 7 for 7 days and the percent of viable cells normalized to control cells treated with DMSO (FIG. 8). CD45+ primary AML cells from an AML patient or CD45+ normal bone marrow cells from a healthy volunteer were treated with the compound of Example 7 for 4 days and the number of viable cells and percentage of apoptotic (annexin V) were determined (FIGS. 9a and 9b). […] OCI-AML3 cells constitutively expressing luciferase were tail vein injected in NSG nude mice. 17 days after cell injection, luciferin was injected into animals and luciferase signal was measured using an IVIS imaging system to determine tumor burden and for randomization of subjects into study groups. On day 18, animals began receiving daily oral doses of vehicle or 60 mpk of the compound of Example 7 were started and continued throughout the study. On day 28, imaging was performed again to determine tumor burden (FIG. 10).

H460 xenografts = assay: H460 non-small cell lung cancer xenograft; format: in vivo, CD-1 nude mice
Experimental: Non-Small Cell Lung Cancer: H460 cells were implanted subcutaneously in CD-1 nude mice and treated with the compound of Example 7 (40 mpk qdx 14) delivered by oral gavage for 14 days. Animals were randomized into study groups and the study initiated when the average tumor volume was 400 mm^3. During treatment, tumor volume was measured three times per week to determine tumor growth over the course of the study (FIG. 5). Nine tumor bearing mice were included in each group. On day 15, 3 hours prior to take down, hypoxyprobe (Hypoxyprobe, Inc. cat #HP3) was injected into mice. Tumor sections were stained (dark areas) for the level of hypoxia utilizing an anti-hypoxyprobe antibody and standard IHC methods (FIG. 6). The same tumors were stained for the expression of HIF regulated gene carbonic anhydrase IX (CA9) using standard IHC methods (FIG. 7).

293T-HRE-GFP-luc cells = assay: Cell-based reporter assay for IC50 determinations (HRE-luciferase, hypoxia); conditions: 6 hrs hypoxia (1% O2), luminescence
Outline: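 IC50s come from four-parameter logistic fits of luminescence. Compounds in 1:3 DMSO series were added to 293T-HRE-GFP-luc cells, 30 min normoxia preceding 6 hrs at 1% O2, 37° C; HRE-luciferase signal was then measured with Steadylite Plus reagent.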

[2] = test system: CD45+ primary AML cells from an AML patient; assay: Primary AML cells, viable cells and annexin V; format: cell-based, human; conditions: 4 days
Experimental: as §2

TMD8 cells = assay: Diffuse large B-cell lymphoma (DLBCL) assay, viable cells by Guava ViaCount; format: cell-based; conditions: varying concentrations, 7 days
Experimental: Diffuse Large B-Cell Lymphoma (DLBCL) Assay
Equal number of TMD8 cells were plated and treated with varying concentrations of the compound of Example 7 for 7 days. Percent of viable cells was determined using Guava ViaCount reagents (EMD Millipore cat #4000-0040) that contains proprietary dyes that enable the determination of the number of live and dead cells in a sample (FIG. 1).

NB-1 xenografts = assay: NB-1 xenograft model; format: in vivo, CD-1 nude mice; conditions: 40 mg/kg daily oral
Description: To establish activity and provide in vivo proof of concept, NB-1 cells were implanted into CD-1 nude mice and treated with vehicle or 40 mpk of the compound of Example 7 po daily hen tumors reached 400-500 mm^3. Tumor size was measure 3×/week using caliper measurements (FIG. 4).

HN5 xenograft = assay: HN5 head and neck xenograft with fractionated irradiation; format: in vivo, CD-1 nude mice; conditions: 60 mg/kg daily oral and/or 4 Gy irradiation for 5 days
Experimental: HN5 head and neck cells were injected intramuscularly into CD-1 nude mice. Upon tumors reaching 8.5 mm in diameter, animals were enrolled in the study and received either vehicle or the compound of Example 7 (days 0-5) with or without a 4 Gy dose 6 hours after the compound of Example 7 on days 1-5 of the study (FIG. 12). Tumor size was measured every other day to determine the rate of growth (FIG. 13).

D423 cells = assay: Cellular assay in ENO-1 deleted D423 cells; format: cell-based; conditions: D423, various concentrations
Description: as §1

OCI-AML3 cell line = assay: Acute myeloid leukemia cell line viability; format: cell-based, human; conditions: OCI-AML3, various concentrations, 7 days
Experimental: as §2

NB-1 cells = assay: Neuroblastoma cellular assay; format: cell-based; conditions: NB-1, various concentrations
Description: as §1

[3] = test system: CD45+ normal bone marrow cells from a healthy volunteer; assay: Normal bone marrow cells, viable cells and annexin V; format: cell-based, human; conditions: 4 days
Experimental: as §2

Compound: CN1CCN(c2cc(Cn3cc(-c4nc(-c5ccc(OC(F)(F)F)cc5)no4)ccc3=O)ccn2)CC1 [Example 7, 1-methyl-4-(4-((2-oxo-5-(3-(4-(trifluoromethoxy)phenyl)-1,2,4-oxadiazol-5-yl)pyridin-1(2H)-yl)methyl)pyridin-1-ium-2-yl)piperazin-1-ium bis-trifluoroacetate]
- cell death (Gli56 cells): cell death readily apparent
- cell number (Gli56 cells): significantly reduced
- disease burden (IVIS imaging) ([1]; 60 mg/kg daily oral, NSG mice): reduces disease burden
- survival ([1]; 60 mpk daily oral, relative to vehicle): significantly increased their survival
- tumor growth (H460 xenografts; 40 mpk qdx14 oral gavage): inhibited the growth of the H460 xenografts
- carbonic anhydrase IX (CA9) protein expression in tumor (IHC) (H460 xenografts; 40 mpk qdx14 oral, day 15): elimination of hypoxia and CA9 protein expression
- level of hypoxia in tumor (hypoxyprobe IHC) (H460 xenografts; 40 mpk qdx14 oral, day 15): elimination of hypoxia
- IC50 (293T-HRE-GFP-luc cells): < 100 nM
- number of viable cells [2]: significant decrease
- percentage of apoptotic (annexin V) cells [2]: significant increase
- Percent of viable cells (TMD8 cells): respond robustly
- tumor growth (NB-1 xenografts): reduces the tumor growth
- tumor diameter, combination with irradiation (HN5 xenograft): enhance fractionated irradidation
- cell number (D423 cells): significantly reduced
- percent of viable cells normalized to DMSO control (OCI-AML3 cell line): reduced number of viable cells
- cell death (NB-1 cells): cell death readily apparent
- cell number (NB-1 cells): significantly reduced
- response (viable cells, annexin V) [3]: minimal response
